From patent publication US5502242A, “Propiolate ester compound an acaricide containing the same as an active ingredient and an acaricidal method” (Sumitomo Chemical Company, Limited, priority 1993, dated 1996)

Assays:
Type in all cases: in vivo
Tyrophagus putrescentiae [1] = experiment: Activity against Tyrophagus putrescentiae (treated filter paper, Biological Test Example 1); conditions: 24 h, 0.8 g/m^2 on filter paper, after one day
Excerpt: (§1) A piece of filter paper (diameter: 4 cm) was impregnated uniformly with an acetone solution of the present compound so that the amount of the impregnated compound was 0.8 g/m^2 after being air-dried. Approximately twenty heads of mites (Tyrophagus putrescentiae, Dermatophagoides farinae Hughes and Dermatophagoides pteronyssinuis) were put on the surface of the treated filter paper. An adhesive substance was applied on the circumference of the filter paper for preventing escape. After one day, the mortality was examined. The results for Tyrophagus putrescentiae, Dermatophagoides farinae Hughes and Dermatophagoides pteronyssinus are shown in Table 3, Table 4, and Table 5, respectively.

[2] = tested on: Dermatophagoides farinae Hughes; experiment: Activity against Dermatophagoides farinae Hughes (treated filter paper, Biological Test Example 1); conditions: 24 h, 0.8 g/m^2 on filter paper, after one day
Excerpt: as §1

[3] = tested on: Dermatophagoides pteronyssinus; experiment: Activity against Dermatophagoides pteronyssinus (treated filter paper, Biological Test Example 1); conditions: 24 h, 0.8 g/m^2 on filter paper, after one day
Excerpt: as §1

[4] = tested on: Dermatophagoides pteronyssinus; experiment: Residual activity against Dermatophagoides pteronyssinus (treated filter paper, Biological Test Example 2); conditions: 24 h, 0.8 g/m^2 on filter paper, mites put on seven days after treatment, mortality after one day
Excerpt: A piece of filter paper (diameter: 4 cm) was impregnated uniformly with an acetone solution of the compound sample so that the amount of the compound was 0.8 g/m^2 after being air-dried. After seven days, approximately twenty heads of mites (Dermatophagoides pteronyssinus) were put on the surface of the treated filter paper. An adhesive substance was applied on the circumference of the filter paper for preventing escape. After one day, the mortality was examined.

Tyrophagus putrescentiae [5] = experiment: Fumigating activity against Tyrophagus putrescentiae (heated porous ceramic plate in peat grady chamber, Biological Test Example 3); conditions: 24 h, 55 mg/m^3, ceramic plate heated at 175° C., after twenty-four hours
Excerpt: A piece of filter paper (diameter: 4 cm) was placed in an aluminum plate and an adhesive substance was applied on the circumference of the filter paper for preventing escape. Fifty to a hundred heads of mites (Tyrophagus putrescentiae) were put with little feed on the filter paper. Three sets of such filter paper with mites were placed on three corners (approximately 30 cm from the wall) in a floor of a peat grady chamber (1.8 m ×1.8 m ×1.8 m). A porous ceramic plate (4 cm ×4 cm ×1.2 cm) impregnated with an acetone solution of the present compound (concentration: 55 mg/m^3) was heated at 175° C. with an electric heater placed on the center of the floor of the chamber. After twenty-four hours, the mortality was examined.

SMILES	mortality at 0.8 g/m2 (Tyrophagus putrescentiae [1]) [%]	mortality at 0.8 g/m2 [2] [%]	mortality at 0.8 g/m2 [3] [%]	mortality at 0.8 g/m2 [4] [%]	mortality at 55 mg/m3 (Tyrophagus putrescentiae [5]) [%]
C#CC(=O)OCCCCCc1ccccc1 [Compound 1, 5-phenylpentyl propiolate]	100	100	100	95	76
C#CC(=O)OCCCCCCc1ccccc1 [Compound 2, 6-phenylhexyl propiolate]	100	100	100	100	73
C#CC(=O)OCCCCCCCc1ccccc1 [Compound 3, 7-phenylheptyl propiolate]	100	100	100	100	96
C#CC(=O)OCCCCCCCCc1ccccc1 [Compound 4]	100	100	100	100	
C#CC(=O)OCCCCCCCCCc1ccccc1 [Compound 5]	100	100	100	100	
C#CC(=O)OCCCOc1ccccc1 [Compound 6]	100	100	100	100	
C#CC(=O)OCCCCOc1ccccc1 [Compound 7]	100	100	100	100	
C#CC(=O)OCCCCCOc1ccccc1 [Compound 8]	100	100	100	100	
C#CC(=O)OCCCOc1ccc(C)cc1C [Compound 9]	100	100	100	100	
C#CC(=O)OCCCCOc1ccccc1C [Compound 10, 4-(2-methylphenoxy)butyl propiolate]	100	100	100	100	
C#CC(=O)OCCCCOc1ccc(C)cc1 [Compound 11, 4-(4-methylphenoxy)butyl propiolate]	100	100	100	100	79
C#CC(=O)OCCCCOc1ccc(C)cc1C [Compound 12]	100	100	100	100	
C#CC(=O)OCCCCOc1c(C)cccc1C [Compound 13]	100	100	100	92	
C#CC(=O)OCCCCCOc1c(C)cccc1C [Compound 14]	100	100	100	100	
C#CC(=O)OCCCCOc1c(C(C)C)cccc1C(C)C [Compound 15]	100	100	100	95	
C#CC(=O)OCCOCc1ccccc1 [Compound 16, 2-benzyloxyethyl propiolate]	100	100	100	83	
C#CC(=O)OCCCOCc1ccccc1 [Compound 17]	100	100	100	100	
C#CC(=O)OCCOCc1ccc(C)cc1 [Compound 18]	100	100	100	100	
C#CC(=O)OCCCCCCOc1ccccc1 [Compound 19]	100	100		100	
C#CC(=O)OCCCOc1ccc(CC)cc1 [Compound 20]	100	100		100	
C#CC(=O)OCCCCCOc1ccc(C)cc1 [Compound 21]	100	100		100	
C#CC(=O)OCCCCOc1ccc(CC)cc1 [Compound 22]	96	100		100	
C#CC(=O)OCC(C)COc1ccccc1 (centres unmarked) [Compound 23]	100	100		100	
C#CC(=O)OCC(C)COc1ccc(C)cc1 (centres unmarked) [Compound 24]	100	100		100	
C#CC(=O)OCCC(C)COc1ccccc1 (centres unmarked) [Compound 25]	100	100		100	
C#CC(=O)OCCC(C)COc1ccc(C)cc1 (centres unmarked) [Compound 26]	100	96		94	
C#CC(=O)OCCCOc1c(C)cccc1C [Compound 27]	100	86		100	
C#CC(=O)OCCOCc1ccc(CC)cc1 [Compound 28]	100	100		97	
C#CC(=O)OCC(C)OCc1ccccc1 (centres unmarked) [Compound 29]	100	100		82	
O=C(Oc1ccccc1)c1ccccc1O [Phenyl salicylate, reference compound]					28
